Results on 40 compounds are retold here after ChEMBL document CHEMBL1149662, “Design and synthesis of a library of tertiary amides: evaluation as mimetics of the melanocortins' active core” (Bioorg Med Chem, 2007).

Assay [1] has as its target Melanocyte-stimulating hormone receptor (Mus musculus, UniProt Q01727). In words: Displacement of [125I]NDP-MSH from MC1 receptor in mouse B16 cells. The assay is classed as cell-based. (In general: Loss of bound radioactivity is the signal in a displacement assay; it reports binding, not function.)
A further assay addresses Melanocortin receptor 3 (Homo sapiens, UniProt P41968). In words: Displacement of [125I]NDP-MSH from human recombinant MC3 receptor expressed in Sf9 cells.
In the next assay the target is Melanocortin receptor 4 (Homo sapiens, UniProt P32245). In words: Displacement of [125I]NDP-MSH from human recombinant MC4 receptor expressed in Sf9 cells.
Sequence of Melanocortin receptor 4 (P32245 whole entry): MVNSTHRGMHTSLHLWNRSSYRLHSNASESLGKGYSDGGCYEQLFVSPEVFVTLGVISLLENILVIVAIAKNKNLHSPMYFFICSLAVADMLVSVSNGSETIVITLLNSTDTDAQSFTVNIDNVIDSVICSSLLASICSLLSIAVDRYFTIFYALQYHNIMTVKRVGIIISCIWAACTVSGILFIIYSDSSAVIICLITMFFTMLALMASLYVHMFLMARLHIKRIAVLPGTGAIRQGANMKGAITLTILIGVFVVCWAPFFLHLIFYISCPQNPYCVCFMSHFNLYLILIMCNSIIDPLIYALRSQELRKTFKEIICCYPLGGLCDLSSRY
The target of a further assay is Melanocortin receptor 5 (Homo sapiens, UniProt P33032). Put plainly: Displacement of [125I]NDP-MSH from human recombinant MC5 receptor expressed in Sf9 cells.
Sequence of Melanocortin receptor 5 (P33032 whole entry): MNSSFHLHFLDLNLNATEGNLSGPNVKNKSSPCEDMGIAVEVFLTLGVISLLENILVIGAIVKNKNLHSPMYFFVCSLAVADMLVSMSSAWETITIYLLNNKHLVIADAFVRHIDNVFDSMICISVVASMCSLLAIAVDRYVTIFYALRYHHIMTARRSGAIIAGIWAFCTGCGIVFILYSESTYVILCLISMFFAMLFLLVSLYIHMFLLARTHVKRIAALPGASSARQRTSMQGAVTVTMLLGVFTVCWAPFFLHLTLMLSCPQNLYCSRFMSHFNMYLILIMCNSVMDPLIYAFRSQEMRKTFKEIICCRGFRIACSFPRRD

Sequence of Melanocyte-stimulating hormone receptor (Q01727 whole entry): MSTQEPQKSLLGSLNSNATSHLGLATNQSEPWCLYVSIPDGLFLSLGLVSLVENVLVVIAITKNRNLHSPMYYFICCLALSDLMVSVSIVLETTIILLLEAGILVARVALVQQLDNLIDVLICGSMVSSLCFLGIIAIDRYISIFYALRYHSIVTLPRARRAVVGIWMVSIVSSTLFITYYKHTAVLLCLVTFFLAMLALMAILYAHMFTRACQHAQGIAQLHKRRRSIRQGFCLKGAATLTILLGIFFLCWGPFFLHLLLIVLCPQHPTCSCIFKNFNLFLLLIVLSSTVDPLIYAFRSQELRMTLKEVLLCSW
Sequence of Melanocortin receptor 3 (P41968 whole entry): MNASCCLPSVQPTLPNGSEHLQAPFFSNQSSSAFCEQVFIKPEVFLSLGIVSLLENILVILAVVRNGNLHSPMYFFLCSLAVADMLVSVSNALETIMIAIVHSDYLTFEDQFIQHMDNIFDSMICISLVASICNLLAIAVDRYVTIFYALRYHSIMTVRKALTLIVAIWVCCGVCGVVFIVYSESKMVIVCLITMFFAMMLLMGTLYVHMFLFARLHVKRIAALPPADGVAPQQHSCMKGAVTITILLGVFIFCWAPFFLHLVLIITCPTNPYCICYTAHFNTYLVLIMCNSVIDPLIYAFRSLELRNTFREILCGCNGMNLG

In general, Ki refers to the dissociation constant of the complex between target and ligand, obtained from inhibition or displacement. For `NCCCN(Cc1ccc2ccccc2c1)C(=O)CCCc1c[nH]c2ccccc12`, the inhibition constant (Ki) in assay [1] amounted to 3.7 µM; on Melanocortin receptor 3, 26 µM; at Melanocortin receptor 4 it was 19 µM; at Melanocortin receptor 5, 23 µM.

Regarding `NCCCCN(C/C(Cl)=C/c1ccccc1)C(=O)CCCc1c[nH]c2ccccc12`, the Ki in assay [1] amounted to 2.4 µM; at Melanocortin receptor 3, 32 µM; on Melanocortin receptor 4 it was 5.4 µM; at Melanocortin receptor 5, 85 µM.

`CCOc1cc(CN(C(=O)CCCc2c(Cc3ccc(O)cc3)[nH]c3ccccc23)C2CCC(CC3CCC(N)CC3)CC2)ccc1OC` (stereo not given): the Ki was 2.1 µM in assay [1], 26 µM on Melanocortin receptor 3, 2.1 µM on Melanocortin receptor 4 and 12 µM at Melanocortin receptor 5.

As to `NCCCCCN(C/C(Cl)=C\c1ccccc1)C(=O)CCCc1c[nH]c2ccccc12`, the Ki was determined as 0.77 µM in assay [1], 5.4 µM at Melanocortin receptor 3, 2.3 µM on Melanocortin receptor 4 and 28 µM at Melanocortin receptor 5.

As to `NCCCCN(C/C=C/c1ccccc1)C(=O)CCc1c[nH]c2ccccc12`, the Ki in assay [1] came out at 8.3 µM; at Melanocortin receptor 3, 67 µM; at Melanocortin receptor 4, 18 µM; on Melanocortin receptor 5 it was 10 µM.

`NCCCN(C/C(Cl)=C/c1ccccc1)C(=O)C(=O)c1c[nH]c2ccccc12`: the inhibitory constant (Ki) in assay [1] is 1 µM; on Melanocortin receptor 3 it was 7.4 µM; on Melanocortin receptor 4 it was 6.8 µM; at Melanocortin receptor 5 it was 4.3 µM.

Turning to `NC1CCC(CC2CCC(N(C/C(Cl)=C/c3ccccc3)C(=O)COc3ccc4ccccc4c3)CC2)CC1` (stereo in doubt; 10b-36-14), the Ki in assay [1] stood at 1.5 µM; on Melanocortin receptor 3 it was 23 µM; at Melanocortin receptor 4, 3.7 µM; at Melanocortin receptor 5, 5.5 µM.

Consider `NCCCCN(Cc1ccccc1)C(=O)CCCc1c[nH]c2ccccc12`, for which the Ki came out at 12 µM in assay [1], 38 µM on Melanocortin receptor 3, 17 µM on Melanocortin receptor 4 and 20 µM at Melanocortin receptor 5.

In the case of `NCCCN1CCN(CCCN(Cc2ccccc2)C(=O)CCCc2c[nH]c3ccccc23)CC1`, the Ki in assay [1] came out at 6.4 µM; on Melanocortin receptor 3, 52 µM; on Melanocortin receptor 4, 16 µM; at Melanocortin receptor 5, 22 µM.

With `NCCCCCN(Cc1ccccc1)C(=O)CCCc1c(Cc2ccc(O)cc2)[nH]c2ccccc12`, the Ki came out at 2 µM in assay [1], 47 µM on Melanocortin receptor 3, 5 µM at Melanocortin receptor 4 and 5.1 µM at Melanocortin receptor 5.

As for `N[C@H]1CC[C@H](NC(=O)N[C@H]2CC[C@H](N(Cc3ccccc3)C(=O)CCCc3c[nH]c4ccccc34)CC2)CC1`, the inhibition constant (Ki) in assay [1] worked out at 11 µM; at Melanocortin receptor 3, 99 µM; on Melanocortin receptor 4, 25 µM; on Melanocortin receptor 5 it was 176 µM.

For the compound `NCCCN(C(=O)/C=C/c1c[nH]c2ccccc12)C1CCc2ccccc2C1` (stereo not given), the Ki was found to be 6 µM in assay [1], 48 µM at Melanocortin receptor 3, 11 µM on Melanocortin receptor 4 and 12 µM at Melanocortin receptor 5.

On to `NCCCCCN(C/C(Cl)=C\c1ccccc1)C(=O)/C=C/c1c[nH]c2ccccc12`, for which the Ki turned out to be 2.7 µM in assay [1], 27 µM on Melanocortin receptor 3, 59 µM at Melanocortin receptor 4 and 5.4 µM on Melanocortin receptor 5.

With `C=C(Br)CN(C(=O)CCCc1c[nH]c2ccccc12)C1CCC(CC2CCC(N)CC2)CC1` (stereo in doubt; form 1), the Ki in assay [1] was 1.2 µM; at Melanocortin receptor 3, 19 µM; at Melanocortin receptor 4 it was 3.2 µM; at Melanocortin receptor 5, 4.9 µM.

Turning to `COc1ccc(CN(C(=O)CCCc2c[nH]c3ccccc23)C2CCC(CC3CCC(N)CC3)CC2)cc1Br` (stereo not given), the inhibition constant (Ki) in assay [1] worked out at 2.9 µM; on Melanocortin receptor 3 it was 9.3 µM; on Melanocortin receptor 4, 4.8 µM; on Melanocortin receptor 5, 278 µM.

For the compound `CC(c1csc2ccccc12)N(CCCN)C(=O)CCCc1c[nH]c2ccccc12` (stereo not given), the inhibition constant Ki in assay [1] was found to be 7.4 µM; on Melanocortin receptor 3, 104 µM; at Melanocortin receptor 4 it was 9.8 µM; on Melanocortin receptor 5, 55 µM.

Consider `NCc1cccc(CN(Cc2ccc3ccccc3c2)C(=O)CCCc2c[nH]c3ccccc23)c1`, for which the Ki in assay [1] was determined as 1.5 µM; at Melanocortin receptor 3, 17 µM; at Melanocortin receptor 4 it was 7.7 µM; at Melanocortin receptor 5 it was 6.4 µM.

Consider `CC(C)N(CCCCN)C(=O)c1c[nH]c2ccccc12`, for which the Ki in assay [1] came out at 106 µM; on Melanocortin receptor 3 it was 112 µM; on Melanocortin receptor 4, 222 µM; on Melanocortin receptor 5, 279 µM.

Consider `N[C@@H]1CCCC[C@H]1N(C/C=C/c1ccccc1)C(=O)CCCc1c[nH]c2ccccc12`, for which the Ki turned out to be 12 µM in assay [1], 62 µM at Melanocortin receptor 3, 116 µM on Melanocortin receptor 4 and 555 µM on Melanocortin receptor 5.

`C/C(=C\c1ccccc1)CN(CCCN)C(=O)Cc1c[nH]c2ccccc12`: the Ki in assay [1] amounted to 9.3 µM; at Melanocortin receptor 3, 44 µM; at Melanocortin receptor 4, 67 µM; at Melanocortin receptor 5, 89 µM.

As to `NC1CCC(CC2CCC(N(C/C(Cl)=C/c3ccccc3)C(=O)c3cc4cc(OCc5ccccc5)ccc4[nH]3)CC2)CC1` (stereo not given), the Ki in assay [1] amounted to 4.2 µM; on Melanocortin receptor 3 it was 12 µM; at Melanocortin receptor 4, 4.8 µM; on Melanocortin receptor 5, 12 µM.

Turning to `COc1cc(Cl)c(CN(C(=O)CCCc2c[nH]c3ccccc23)C2CCC(CC3CCC(N)CC3)CC2)cc1OC` (stereo in doubt; form 2), the inhibitory constant (Ki) in assay [1] was determined as 1.9 µM; on Melanocortin receptor 3 it was 25 µM; on Melanocortin receptor 4 it was 1.5 µM; on Melanocortin receptor 5, 8.9 µM.

`NCCCCCN(Cc1ccccc1)C(=O)[C@H](N)Cc1c[nH]c2ccccc12`: the inhibitory constant (Ki) in assay [1] came out at 32 µM; on Melanocortin receptor 3, 106 µM; at Melanocortin receptor 4, 87 µM; on Melanocortin receptor 5 it was 159 µM.

`NCCCCCN(C(=O)Cc1c[nH]c2ccccc12)C1CCCCCC1`: the inhibition constant (Ki) turned out to be 6 µM in assay [1], 14 µM at Melanocortin receptor 3, 16 µM at Melanocortin receptor 4 and 35 µM on Melanocortin receptor 5.

Turning to `NC1CCC(CC2CCC(N(Cc3c(F)cccc3Cl)C(=O)CCCc3c(Cc4ccc(O)cc4)[nH]c4ccccc34)CC2)CC1` (stereo not given), the Ki in assay [1] was 1.1 µM; on Melanocortin receptor 3, 23 µM; on Melanocortin receptor 4, 1.9 µM; at Melanocortin receptor 5, 15 µM.

In the case of `Cc1cccc(CN(C(=O)CCCc2c(Cc3ccc(O)cc3)[nH]c3ccccc23)C2CCC(CC3CCC(N)CC3)CC2)c1` (stereo not given), the inhibition constant (Ki) in assay [1] was 2.9 µM; at Melanocortin receptor 3, 78 µM; on Melanocortin receptor 4, 3.4 µM; at Melanocortin receptor 5 it was 16 µM.

With `NC1CCC(CC2CCC(N(Cc3ccccc3)C(=O)CCCc3c[nH]c4ccccc34)CC2)CC1` (stereo in doubt; 10d-40-8), the Ki in assay [1] was found to be 0.42 µM; at Melanocortin receptor 3 it was 9.4 µM; at Melanocortin receptor 4, 8.3 µM; on Melanocortin receptor 5, 18 µM.

In the case of `NCCCCCCN(Cc1ccccc1)C(=O)CCCc1c[nH]c2ccccc12`, the inhibition constant (Ki) in assay [1] came out at 13 µM; at Melanocortin receptor 3, 43 µM; on Melanocortin receptor 4 it was 3.4 µM; at Melanocortin receptor 5 it was 3.8 µM.

In the case of `COc1cc(Cl)c(CN(C(=O)CCCc2c[nH]c3ccccc23)C2CCC(CC3CCC(N)CC3)CC2)cc1OC` (stereo in doubt; form 1), the inhibition constant (Ki) came to 2.1 µM in assay [1], 24 µM on Melanocortin receptor 3, 2.3 µM on Melanocortin receptor 4 and 4.3 µM at Melanocortin receptor 5.

Take `NCCCCCN(Cc1ccccc1)C(=O)[C@@H](N)Cc1ccc2ccccc2c1`: the Ki came to 10 µM in assay [1], 39 µM at Melanocortin receptor 3, 21 µM at Melanocortin receptor 4 and 34 µM on Melanocortin receptor 5.

Take `NCC1CCCC(CN(C/C(Cl)=C/c2ccccc2)C(=O)CCCc2c[nH]c3ccccc23)C1` (stereo not given): the Ki in assay [1] was determined as 1.5 µM; at Melanocortin receptor 3, 25 µM; on Melanocortin receptor 4 it was 3.7 µM; on Melanocortin receptor 5, 9.1 µM.

For the compound `C=C(Br)CN(C(=O)CCCc1c[nH]c2ccccc12)C1CCC(CC2CCC(N)CC2)CC1` (stereo in doubt; form 2), the Ki in assay [1] turned out to be 1.4 µM; at Melanocortin receptor 3 it was 29 µM; at Melanocortin receptor 4, 5.5 µM; on Melanocortin receptor 5, 9.4 µM.

Take `NC1CCC(CC2CCC(N(C/C(Cl)=C/c3ccccc3)C(=O)COc3ccc4ccccc4c3)CC2)CC1` (stereo in doubt; form 5): the Ki was 1.9 µM in assay [1], 22 µM on Melanocortin receptor 3, 3.5 µM at Melanocortin receptor 4 and 6.7 µM at Melanocortin receptor 5.

`NC1CCCC(NC(=O)NC2CCCC(N(Cc3ccccc3)C(=O)CCCc3c(Cc4ccc(O)cc4)[nH]c4ccccc34)C2)C1` (stereo not given): the inhibition constant Ki in assay [1] turned out to be 2.9 µM; at Melanocortin receptor 3 it was 25 µM; at Melanocortin receptor 4, 6.5 µM; at Melanocortin receptor 5, 23 µM.

Consider `NC1CCC(CC2CCC(N(C/C(Cl)=C/c3ccccc3)C(=O)CCCc3c[nH]c4ccccc34)CC2)CC1` (stereo in doubt; form 4), for which the Ki in assay [1] was 1.4 µM; on Melanocortin receptor 3, 31 µM; at Melanocortin receptor 4, 5.6 µM; on Melanocortin receptor 5 it was 4.9 µM.

As to `COc1cc(Br)c(CN(C(=O)CCCc2c[nH]c3ccccc23)[C@H]2CC[C@@H](C[C@H]3CC[C@@H](N)CC3)CC2)cc1OC`, the inhibition constant Ki in assay [1] came to 2.3 µM; on Melanocortin receptor 3 it was 8.1 µM; at Melanocortin receptor 4, 7.8 µM; at Melanocortin receptor 5, 6.9 µM.

Regarding `N=C(N)NCCCCN(Cc1ccc2ccccc2c1)C(=O)Cc1c[nH]c2ccccc12`, the Ki in assay [1] is 17 µM; on Melanocortin receptor 3, 137 µM; at Melanocortin receptor 4, 182 µM; at Melanocortin receptor 5, 16 µM.

Regarding `CC1CC(CC2CCC(N(Cc3ccccc3)C(=O)CCCc3c[nH]c4ccccc34)C(C)C2)CCC1N` (stereo in doubt; form 2), the Ki in assay [1] stood at 0.87 µM; at Melanocortin receptor 3, 22 µM; on Melanocortin receptor 4, 3.2 µM; on Melanocortin receptor 5, 4.8 µM.

As to `NCCCCCN(Cc1ccc2c(c1)OCO2)C(=O)CCCc1c[nH]c2ccccc12`, the inhibition constant Ki in assay [1] was determined as 5.5 µM; on Melanocortin receptor 3 it was 38 µM; on Melanocortin receptor 4, 12 µM; at Melanocortin receptor 5 it was 23 µM.

Regarding `N[C@H]1CC[C@H](N(Cc2ccccc2)C(=O)CCCc2c[nH]c3ccccc23)CC1`, the Ki in assay [1] is 4.3 µM; at Melanocortin receptor 3, 50 µM; on Melanocortin receptor 4 it was 8.4 µM; on Melanocortin receptor 5, 40 µM.
